Read-outs that look alike come from different tables or passages of the source. Each block holds one compound with its values, some of them ahead of it.
Tests used:
[1] = test system: NCI-460 lung cancer cell line; assay: Cell viability assay (CellTiter Glo), NCI-460; type: cell-based; conditions: 120 h; NCI-460, 20 uM, day 5; read-out: % growth inhibition
Protocol: (§1) Pancreatic cancer cell lines (MIA PaCa-2 and CAPAN-2) were purchased from ATCC. MIA PaCa-2 were grown in DMEM and CAPAN-2 in McCoy's 5A (Gibco). Colon cancer cell lines (SW480 and HT-29) were purchased from ATCC. SW480 were grown in Leibovitz's L-15 (ATCC) and HT-29 in McCoy's 5A (Gibco). Lung cancer cell lines (NCI 460 and NCI 1975) were purchased from ATCC and grown in RPMI 1640 (Gibco). PC-3 prostate cancer cell line was purchased from ATCC and grown in F-12K (ATCC). Bladder cancer cell line 5637 was purchased from ATCC and RT-112 was purchased from Sigma-Aldrich and was grown in RPMI 1640 (Gibco). […] IL1B and TNFA mRNA levels were measured by qPCR analysis as described previously (Fang K et al. Am J Pathol, 188(3):586-99, 2018).
(§2) 1.8×10^3 cells/well were plated in quadruplicates in 96-well plate and treated with exogenously added MJK analogues 6 hours after plating. […] Cell growth was assessed 1, 3, 5 or 7 days after plating using the CellTiter Glo Luminescence Cell Viability Assay (Promega) according to manufacturer's protocol. For the experiments where the effect of combinatorial treatment of MJK-004 analogues with chemotherapy was assessed, treatment of cells with gemcitabine (10 nM) or 5-fluouracil (2000 nM) was performed one day after MJK-004 treatment and the cells were further treated with exogenously added MJK analogues 2 days later. […]

[2] = test system: HT-29 colon cancer cell line; assay: Cell viability assay (CellTiter Glo), HT-29; type: cell-based; conditions: Homo sapiens, 120 h; HT-29, 20 uM, day 5; read-out: % growth inhibition
Protocol: as §1, §2

[3] = test system: PC-3 prostate cancer cell line; assay: Cell viability assay (CellTiter Glo), PC-3; type: cell-based; conditions: 120 h; PC-3, 20 uM, day 5; read-out: % growth inhibition
Protocol: as §1, §2

[4] = test system: CAPAN-2 pancreatic cancer cell line; assay: Cell viability assay (CellTiter Glo), CAPAN-2; type: cell-based; conditions: Homo sapiens, 120 h; CAPAN-2, 20 uM, day 5; read-out: % growth inhibition
Protocol: as §1, §2

[5] = test system: SW480 colon cancer cell line; assay: Cell viability assay (CellTiter Glo), SW480; type: cell-based; conditions: Homo sapiens, 120 h; SW480, 20 uM, day 5; read-out: % growth inhibition
Protocol: as §1, §2

[6] = test system: MIA PaCa-2 pancreatic cancer cell line; assay: Cell viability assay (CellTiter Glo), MIA PaCa-2; type: cell-based; conditions: Homo sapiens, 120 h; MIA PaCa-2, 20 uM, day 5; read-out: % growth inhibition
Protocol: as §1, §2

[7] = test system: NCI-1975 lung cancer cell line; assay: Cell viability assay (CellTiter Glo), NCI-1975; type: cell-based; conditions: 120 h; NCI-1975, 20 uM, day 5; read-out: % growth inhibition
Protocol: as §1, §2

[8] = test system: 5637 bladder cancer cell line; assay: Cell viability assay (CellTiter Glo), 5637; type: cell-based; conditions: for IC50: 5637 cell growth
Protocol: Pancreatic cancer cell lines (MIA PaCa-2 and CAPAN-2) were purchased from ATCC. MIA PaCa-2 were grown in DMEM and CAPAN-2 in McCoy's 5A (Gibco). Colon cancer cell lines (SW480 and HT-29) were purchased from ATCC. SW480 were grown in Leibovitz's L-15 (ATCC) and HT-29 in McCoy's 5A (Gibco). Lung cancer cell lines (NCI 460 and NCI 1975) were purchased from ATCC and grown in RPMI 1640 (Gibco). PC-3 prostate cancer cell line was purchased from ATCC and grown in F-12K (ATCC). Bladder cancer cell line 5637 was purchased from ATCC and RT-112 was purchased from Sigma-Aldrich and was grown in RPMI 1640 (Gibco). Bladder cancer cell lines, UMUC-9, UMUC-15 and UMUC-7 were purchased from MD Anderson and were grown in EMEM (ATCC). Bladder cancer cell line J82 was purchased from ATCC and was grown in EMEM (ATCC). SW1710 and EJ28 bladder cancer cell lines were purchased from DSMZ and were grown in DMEM (ATCC) and RPMI-1640 (Gibco), respectively. Bladder cancer cell line T24 was purchased from ATCC and grown in McCoy's 5A (Gibco). Bladder cancer cell line BC-3C was purchased from DSMZ and was grown in McCoy's 5A (Gibco). […] IL1B and TNFA mRNA levels were measured by qPCR analysis as described previously (Fang K et al. Am J Pathol, 188(3):586-99, 2018).
as §2, with “later. Cell growth was assessed 3, 4, 5 or 6 days after plating using the CellTiter Glo Luminescence Cell Viability Assay (Promega) according to manufacturer's protocol. Data are expressed as mean […] (arbitrary units)±S.D.” for “later.”

[9] = test system: RT-112 bladder cancer cells; assay: Anchorage-independent cell growth assay (colonies in soft agar); type: cell-based; conditions: RT-112, treated at 1xIC50 or 2xIC50 for 3 days
Protocol: Quadruplicate samples of 1×10^6 bladder cancer cells, that were previously untreated or treated with the MJK-004 at the concentration corresponding to the 1×IC50 or 2×IC50 for each cell line (as assessed at the third day after cells' plating and treatment) for 3 days, were assayed in 96-well plates for colony formation using the CytoSelect Cell Transformation kit (Cell Biolabs, Inc) according to manufacturer's protocol. Seven days later, live cells were detected using a colorimetric format. The MTT dye was added directly to the cultured cells followed by a detergent solution. Quantitation was performed using a standard microplate reader at 540-570 nm. Data were expressed as the mean±S.D.

[10] = test system: EJ28 bladder cancer cell line; assay: Cell viability assay (CellTiter Glo), EJ28; type: cell-based; conditions: Homo sapiens, EJ-28; EJ28 cell growth
Protocol: as §1, §2

[11] = test system: BC3C bladder cancer cell line; assay: Cell viability assay (CellTiter Glo), BC3C; type: cell-based; conditions: BC3C cell growth
Protocol: as §1, §2

[12] = Water solubility of MJK compounds; type: physicochemical
Excerpt: Solubility of MJK compounds: The development of an oral formulation for patients with auto-immune diseases, including Crohn's Disease, is preferential and less expensive, avoiding the need of hospitalization in comparison to the intracolonic (enema) administration. Thus, the water solubility and physical properties of the MJK compounds were examined. […] MJK-008 is the highest soluble MJK compound.

[13] = test system: IL1B and TNFA mRNA levels in HDAC9-overexpressing NCM356 cells; assay: IL1B and TNFA mRNA (qPCR) in HDAC9-overexpressing NCM356 colonocytes; type: cell-based
Protocol: NCM356 colon epithelial cell lines were growth in M3:10 (INCELL, San Antonio, Tex.). A CMV-driven-HDAC9 vector was used to overexpress HDAC9 levels in NCM356 cells. IL1B and TNFA mRNA levels were measured by qPCR analysis as described previously (Fang K et al. Am J Pathol, 188(3):586-99, 2018).

SMILES: Cn1c(/C=C/C(=O)NO)ccc1/C=C/C(=O)c1cccc(F)c1 [MJK001, (E)-3-(5-((E)-3-(3-Fluorophenyl)-3-oxoprop-1-en-1-yl)-1-methyl-1H-pyrrol-2-yl)-N-hydro-xyacrylamide]
inhibition at 20 µM [1]: 3.42%
inhibition at 20 µM [2]: 19.7%
inhibition at 20 µM [3]: 26.8%
inhibition at 20 µM [4]: 42.7%
inhibition at 20 µM [5]: 58.4%
inhibition at 20 µM [6]: 0%
inhibition at 20 µM [7]: 11.8%
inhibition at 20 µM ([8]; 120 h, 5637, 20 uM, day 5, read-out: % growth inhibition): 42.1%

IC50 [10]: 6.62 µM
IC50 [11]: 5.85 µM
IC50 [8]: 7.58 µM
SMILES: Cn1c(/C=C/C(=O)NO)ccc1/C=C/C(=O)c1cccs1 [MJK004, (E)-N-hydroxy-3-(1-methyl-5-((E)-3-oxo-3-(thiophen-2-yl)prop-1-en-1-yl)-1H-pyrrol-2-yl)acrylamide]
ability to form colonies in soft agar [9]: reduced significantly

IC50 [10]: 352 µM
IC50 [11]: 36.4 µM
IC50 [8]: 1740 µM
Solubility score [12]: worst solubility
SMILES: Cn1c(/C=C/C(=O)NO)ccc1/C=C/C(=O)c1cccnc1 [MJK006, (E)-N-hydroxy-3-(1-methyl-5-((E)-3-oxo-3-(pyridin-3-yl)prop-1-en-1-yl)-1H-pyrrol-2-yl)acrylamide]

Solubility score ([12]; hydrochloride): highest solubility
SMILES: Cl.Cn1c(/C=C/C(=O)NO)ccc1/C=C/C(=O)c1cccnc1 [MJK008, (E)-N-Hydroxy-3-(1-methyl-5-((E)-3-oxo-3-(pyridin-3-yl)prop-1-en-1-yl)-1H-pyrrol-2-yl)ac-rylamide hydrochloride]
IL1B and TNFA mRNA levels (inflammatory response) [13]: reduced substantially the inflammatory response

Reference: patent US11952362B2, “Compositions and methods for treating epigenetic disease” (The Regents of the University of California, priority 2018, dated 2024)
